Experimental data as given in patent publication US20240376154A1, “BIS-INTERCALATING PEPTIDES, CONJUGATES AND METHODS OF USE” (ZYMEWORKS BC INC., priority 2023, published 2024).

Assays:
[1] = system: JEG-3 (Placental Choriocarcinoma); test: Cell proliferation assay, JEG-3; assay type: cell-based; settings: 5 nights
Protocol: (§1) The ability of Compound 419 and Compound 424 to inhibit proliferation of tumour cells in vitro was measured by a cell proliferation assay using the following tumour cell lines: IGROV-1 (Ovarian Adenocarcinoma, NCI), JEG-3 (Placental Choriocarcinoma, AddexBio (C0030003)) and OVKATE (Ovarian Adenocarcinoma, Japanese Collection of Research Bioresources (JCRB) (JCRB1044)).
(§2) Cell lines were cultured as per vendor instructions prior to running the cell proliferation assay. Briefly, on the day prior to adding compound, cells (50 μL/well, 1000 cells/well) were added to sterile, tissue culture (TC)-treated, 384-well plates (ThermoFisher Scientific, Catalogue #164610) and incubated overnight at 37° C./5% CO2 to allow the cells to adhere to the plate surface. The next day, in a sterile, V-bottom, 96-well plate, compounds were titrated 1:3 in complete growth medium, creating a 10-point dose response titration with compounds at 3.5-times the desired final concentration. Control wells with no compound (growth medium only) were included for each compound titration in 96-well dilution plates. 20 uL from the 10-point dose response titration were added to the 384-well plate containing the seeded cells, in duplicate. Plates were incubated at 37° C./5% CO2 for 5 nights. After 5-night incubation, cell viability was quantified by the addition of 15 uL/well of CellTiter-Glo® (Promega, Catalogue #G7572) and incubation at room temperature for 30 minutes. After 30-minute incubation, luminescence was measured using a microplate luminometer (BioTek® Synergy™ H1 Microplate Reader). The resulting relative light units (RLU values) were converted to % cytotoxicity using the growth medium only control wells mentioned above:
(§3) Data was fit into 4-parameter logistic to curves using non-linear regression methods available with GraphPad Prism software (GraphPad Software, Inc.).

[2] = system: OVKATE (Ovarian Adenocarcinoma); test: Cell proliferation assay, OVKATE; assay type: cell-based; settings: 5 nights
Protocol: as §1, §2, §3

[3] = system: IGROV-1 (Ovarian Adenocarcinoma); test: Cell proliferation assay, IGROV-1; assay type: cell-based; settings: 5 nights
Protocol: as §1, §2, §3

[4] = Stability in female mouse plasma; assay type: in vitro ADME; settings: 37° C., 24 h
Protocol: The stability of exemplary compounds of general Formula I in mouse plasma was evaluated as follows.
Compounds were incubated at 1 μM in duplicate in female mouse plasma, 250 μL final volume, at 37° C. for 24 h. Aliquots were sampled at 0, 15, 30, 60, 120, 240, 480 and 1440 min. Proteins were precipitated by addition of 5 volumes of cold methanol. After centrifugation 10000×g for 10 min, the residual concentration of compound in the supernatant was measured using an appropriate LC-MS/MS method. The measured concentrations were expressed as a function of time through a one-phase decay exponential regression calculated using GraphPad Prism software (GraphPad Software, Inc.) to generate the plasma half-life for each compound.

[5] = Lipophilicity by experimental HPLC retention time; assay type: physicochemical; settings: HPLC retention time as measure of lipophilicity; C18, 10 to 90% CH3CN/H2O with 0.1% FA over 25 min
Procedure, shortened: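 Reversed-phase HPLC with diode array detection on a Kinetex EVO C18 150×4.6, 2.6 μm column. Gradient 10 to 90% CH3CN/H2O with 0.1% FA over 25 min; retention time serves as the lipophilicity measure.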

[6] = system: tumour cells (at least 4 of a panel of ovarian, breast, lung, pancreatic, placenta, colon cell lines); test: In vitro cytotoxicity (cell proliferation, CellTiter-Glo), average over tumour cell line panel; assay type: cell-based; settings: average pIC50 on all cell lines tested; 5 nights incubation; CellTiter-Glo
Procedure, shortened: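 Each cell line seeded at ~1000 cells/well and left to adhere overnight, then given a 10-point 1:3 compound titration for 5 nights at 37° C, 5% CO2. Viability read by CellTiter-Glo luminescence; IC50 per line, reported as pIC50 averaged across at least 4 lines.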

herring sperm DNA = test: DNA melting temperature by differential scanning calorimetry (DSC); assay type: binding; settings: DSC; herring sperm DNA; DNA melting temperature = 68° C.
Procedure, shortened: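 Herring sperm DNA at 1 mg/mL (1.4 mM base pair) in BPE buffer, pH 7.0, equilibrated with test article (10 mM DMSO stock) for >3 h, insolubles removed by centrifugation. Scanned 25 to 110° C. at 1° C./min; melting temperature taken from the DSC melting curve.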

Compound	EC50 [1] [nM]	EC50 [2] [nM]	EC50 [3] [nM]	plasma stability (in words) ([4]; 1 μM)	HPLC [5] [min]	pIC50 (average) [6]	half-life at 1 μM ([4]; female, mouse, plasma) [h]	DNA melt (° C.) (herring sperm DNA) [°C]
CCCN1CC(=O)N(C)[C@@H](C(C)C)C(=O)NC[C@@H](NC(=O)c2nc3ccccc3cc2O)C(=O)N2CCCC[C@H]2C(=O)NCC(=O)N(CCC)CC(=O)N(C)[C@@H](C(C)C)C(=O)NC[C@@H](NC(=O)c2nc3ccccc3cc2O)C(=O)N2CCCC[C@H]2C(=O)NCC1=O [Compound 419, N,N′-((7R,11S,19aS,26R,30S,38aS)-11,30-diisopropyl-12,31-dimethyl-6,10,13,16,19,25,29,32,35,38-decaoxo-15,34-dipropylhexatriacontahydro-2H,6H-dipyrido[1,2-a:1′,2′-q][1,4,7,10,13,17,20,23,26,29]decaazacyclodotriacontine-7,26-diyl)bis(3-hydroxyquinoline-2-carboxamide)]	6.9	24.1	11.5					
CC(C)[C@H]1C(=O)NC[C@@H](NC(=O)c2nc3ccccc3cc2O)C(=O)N2CCCC[C@H]2C(=O)NCC(=O)N(C(C)C)CC(=O)N(C)[C@@H](C(C)C)C(=O)NC[C@@H](NC(=O)c2nc3ccccc3cc2O)C(=O)N2CCCC[C@H]2C(=O)NCC(=O)N(C(C)C)CC(=O)N1C [Compound 424, N,N′-((7R,11S,19aS,26R,30S,38aS)-11,15,30,34-tetraisopropyl-12,31-dimethyl-6,10,13,16,19,25,29,32,35,38-decaoxohexatriacontahydro-2H,6H-dipyrido[1,2-a:1′,2′-q][1,4,7,10,13,17,20,23,26,29]decaazacyclodotriacontine-7,26-diyl)bis(3-hydroxyquinoline-2-carboxamide)]	55.7		54					
C[C@H]1NC(=O)[C@@H]2CCCCN2C(=O)CN(C)C(=O)CNC(=O)[C@@H]2CCCCN2C(=O)[C@H](NC(=O)c2nc3ccccc3cc2O)[C@@H](C)NC(=O)[C@@H]2CCCCN2C(=O)CN(C)C(=O)CNC(=O)[C@@H]2CCCCN2C(=O)[C@@H]1NC(=O)c1nc2ccccc2cc1O [Quinaldopeptin, quinaldopeptin, reference compound]	9.8	14.8	6.5	stability over the course of the experiment	16.7	8.0		
CC(C)[C@H]1C(=O)OC[C@@H](NC(=O)c2nc3ccccc3cc2O)C(=O)N2CCCC[C@H]2C(=O)NCC(=O)N(C)CC(=O)N(C)[C@@H](C(C)C)C(=O)OC[C@@H](NC(=O)c2nc3ccccc3cc2O)C(=O)N2CCCC[C@H]2C(=O)NCC(=O)N(C)CC(=O)N1C [Sandramycin, N,N′-((7R,11S,19aS,26R,30S,38aS)-11,30-diisopropyl-12,15,31,34-tetramethyl-6,10,13,16,19,25,29,32,35,38-decaoxodotriacontahydro-2H,6H,10H,25H-dipyrido[2,1-b1:2′,1′-l][1,17]dioxa[4,7,10,13,20,23,26,29]octaazacyclodotriacontine-7,26-diyl)bis(3-hydroxyquinoline-2-carboxamide), reference compound]	3.3	0.8	1.6		21.6	9.0	5.9	102
